Test results from patent US20140230081A1, “POLYNUCLEOTIDE, POLYPEPTIDE, ANIMAL MODEL AND METHOD FOR THE DEVELOPMENT OF COMPLEMENT SYSTEM MODULATORS” (BAYER INTELLECTUAL PROPERTY GMBH, priority 2011, published 2014).
Values joined by “and” are separate entries in the source; they are usually repeats but may differ in a detail not shown here. Equal values may be shown once. Read-outs that look alike come from different tables or passages of the source.

Assays:
[1] = system: complement activation; conditions: cited from earlier work
[2] = system: porcine-to-human xenograft; conditions: perfused with human blood; cited from earlier work
[3] = system: complement activation; conditions: cited from earlier work; remark: listed apart in the source
[4] = system: white blood cell counts; assay: CLP model in hamster, hemogram (white blood cell counts of EDTA whole blood); format: in vivo, Syrian Hamster; conditions: CLP+0.5 mg/kg, CLP+2.5 mg/kg and CLP+Alzet compared to CLP+vehicle; FIG. 24
Experimental: Blood samples were obtained under light Isoflurane anesthesia from the cavernous sinus with a capillary at different time points/final exsanguination by cannulation of the carotid artery after 24 hr to allow measurements of differential blood counts. Blood samples for basal blood cell counts were collected from the cavernous sinus one week before study begin. Blood was collected into EDTA tubes and blood cell counts were performed on an automated cell counter.
(§1) Midline incision was made in the Linea Alba of the peritoneal cavity and the cecum was exposed. 50% of the cecum was tied off by placing a tight ligature around the cecum. For the CLP model two puncture wounds were made with an 18-gauge needle into the cecum and small amounts of cecal contents were expressed through the wounds, situs was flushed with 0.5 mL sterile saline. Finally, the cecum was replaced into the peritoneal cavity and the laparotomy site was closed. The sham group underwent abdominal surgery; the cecum was exposed and replaced without ligation or puncture of the cecum. Situs was flushed with 0.5 mL sterile saline and the laparotomy site was closed.
C5aR Antagonist was dissolved in DMSO and diluted with sterile saline solution. The final solution contained 5% DMSO. […] The study medication was given s.c. 30 min before and 2 h after CLP surgery. […]

[5] = system: C5aR; conditions: cynomolgus monkey neutrophils; cited from earlier work
[6] = system: IL10 expression; assay: CLP model in hamster, IL10 expression in tissues (TaqMan RT-PCR); format: in vivo, Syrian Hamster; conditions: CLP+0.5 mg/kg, CLP+2.5 mg/kg and CLP+Alzet vs. CLP+vehicle, dose dependently
Experimental: (§2) Hamster tissues were pulverized by grinding with liquid nitrogen. Total RNA was extracted, DNase I digestion was performed to remove residual genomic DNA and the RNA were reverse transcribed using random hexamer primers. Quantitative TaqMan RT-PCR analysis was performed using the Applied Biosystems PRISM 7900 sequence detection system. The thermal protocol was set to 2 min at 50° C., followed by 10 min at 95° C. and by 40 cycles of 15 s at 95° C. and 1 min at 60° C. Results were normalized to L32 controls, and relative expression was calculated according to the following formula: relative expression=2̂(15−(CT(probe)−CT(L32))). The parameter CT is defined as the cycle number at which the amplification plot passes a fixed threshold above baseline.
as §1
C5aR Antagonist was dissolved in DMSO and diluted with sterile saline solution. The final solution contained 5% DMSO. […]
(§3) Total RNA was isolated from hamster tissues with the Trizol-Reagent protocol according to the manufacturer's specifications (Invitrogen; USA). […] For relative quantitation of the mRNA distribution of IL10, IL6 and IL1b, total RNA from each sample was first reverse transcribed. […] For relative quantitation of the distribution of IL10, IL6 or IL1b mRNA the Applied Biosystems PRISM 7900 sequence detection system was used according to the manufacturer's specifications and protocols. PCR reactions were set up to quantitate IL 10, IL6 or IL1b and the housekeeping gene L32. […]

[7] = system: IL1b expression; assay: CLP model in hamster, IL1b expression in tissues (TaqMan RT-PCR); format: in vivo, Syrian Hamster; conditions: CLP+0.5 mg/kg, CLP+2.5 mg/kg and CLP+Alzet vs. CLP+vehicle; dose dependently; FIG. 11
Experimental: as §2, with “baseline. […]” for “baseline.”
as §3

[8] = system: IL6 expression; assay: CLP model in hamster, IL6 expression in tissues (TaqMan RT-PCR); format: in vivo, Syrian Hamster; conditions: CLP+0.5 mg/kg, CLP+2.5 mg/kg and CLP+Alzet vs. CLP+vehicle, dose dependently
Experimental: as §2, with “baseline. […]” for “baseline.”
as §3

[9] = system: C5aR; conditions: gerbil neutrophils; cited from earlier work
[10] = system: hamster C5aR1; assay: Receptor activation of hamster C5aR1, reduction by antagonist; format: cell-based; conditions: activated by human C5a ligand
[11] = molecular target: hamster C5aR1 polypeptide (hamster); assay: cell-based or functional assay
hamster C5aR1 polypeptide (hamster), sequence (chain, as listed by the source limits assumed): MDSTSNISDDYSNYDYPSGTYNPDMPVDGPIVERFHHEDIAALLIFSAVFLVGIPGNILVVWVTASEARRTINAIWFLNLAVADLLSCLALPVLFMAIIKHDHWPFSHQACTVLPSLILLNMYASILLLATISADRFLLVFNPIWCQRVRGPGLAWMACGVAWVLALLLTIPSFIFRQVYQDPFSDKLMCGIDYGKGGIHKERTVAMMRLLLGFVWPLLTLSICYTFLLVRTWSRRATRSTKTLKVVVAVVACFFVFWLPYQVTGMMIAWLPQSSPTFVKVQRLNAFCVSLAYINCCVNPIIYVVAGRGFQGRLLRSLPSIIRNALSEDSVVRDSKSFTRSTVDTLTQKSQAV

[12] = system: classical complement pathway; conditions: cited from earlier work
[13] = system: hamster C5aR1; assay: C5aR1 signalling via Calcium release (luminescence) in CHOmtCly_hamster-C5aR1/Galpha16 cells; format: cell-based; conditions: peptide at 7 μM; three CHOmtCly_hamster-C5aR1/Galpha16 cell lines, respectively; measured for 60 seconds; listed as Bachem peptide 83462
Experimental: CHO K1 cell lines expressing mitochondrial Clytin (CHOmtCly) were co-transfected with the expression vector pcDNA3 harbouring the cDNA of hamster C5aR1 und pcDNA3-Galpha16 to allow the measurement of C5aR1 signalling via Calcium release (generated cells are named CHOmtCly_hamster-C5aR1/Galpha16). Control cells (CHOmtCly_pcDNA3) were generated by transfection of CHOmtCly cells with a corresponding amount of empty pcDNA3 vector only. In brief, 10^6 cells were transfected with 2 μg DNA by use of the Nucleofector (Amaxxa) program U-27. Transfected cells were seeded in 384-well MTP with a density of 250 cells per well. After 24 h incubation at 37° C. selection media containing a final concentration of 1 mg/ml G418 was added. After one week of selection plates were duplicated and tested for C5aR1 signalling. Cells were loaded with Coelenterazine for 3 h, than buffer or the C-terminal peptide of human C5a (Bachem H3462) was added at a final concentration of 7 μM. Luminescence (RLU) was measured for 60 seconds.
For activity measurement, three CHOmtCly_hamster-C5aR1/Galpha16 cell lines and three CHOmtCly cDNA3 cell lines were analyzed, respectively.
Target sequence in this assay (as listed by the source): as the sequence (chain, as listed by the source limits assumed) above
Target sequence in this assay (P30679 whole entry partner): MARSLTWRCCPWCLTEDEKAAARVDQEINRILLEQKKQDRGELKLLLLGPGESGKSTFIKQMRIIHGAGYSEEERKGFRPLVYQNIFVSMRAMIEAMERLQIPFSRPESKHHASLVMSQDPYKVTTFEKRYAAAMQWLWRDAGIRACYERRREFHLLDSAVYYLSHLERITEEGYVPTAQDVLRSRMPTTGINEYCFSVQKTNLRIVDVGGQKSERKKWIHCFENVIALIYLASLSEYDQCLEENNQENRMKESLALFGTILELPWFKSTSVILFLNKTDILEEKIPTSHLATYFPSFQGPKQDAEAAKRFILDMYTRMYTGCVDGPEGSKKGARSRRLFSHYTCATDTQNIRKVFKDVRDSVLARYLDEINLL

[14] = in vivo; cited from earlier work
[15] = system: complement-mediated tissue injury; conditions: models of ischemia-reperfusion and animal models of human acute and chronic inflammatory diseases; cited from earlier work

CC[C@H](C)[C@H](N)C(=O)N[C@H]1CSSC[C@@H](C(=O)N[C@H](C(N)=O)[C@@H](C)O)NC(=O)[C@H](CCCN=C(N)N)NC(=O)[C@H](Cc2cnc[nH]2)NC(=O)[C@H](Cc2cnc[nH]2)NC(=O)CNC(=O)[C@H](Cc2c[nH]c3ccccc23)NC(=O)[C@H](CC(=O)O)NC(=O)[C@H](CCC(N)=O)NC(=O)[C@H](C(C)C)NC(=O)[C@H](C(C)C)NC1=O [Compstatin]
side effects ([1]; in vivo): without significant side effects
heparine and protamine-induced complement activation ([1]; primates): inhibit
lifetime of a porcine-to-human xenograft [2]: prolongs
complement activation in human serum [3]: inhibit

COc1ccc2c(c1)C(C(=O)N(Cc1ccc(N(C)C)cc1)c1ccc(C(C)C)cc1)CCC2.Cl (stereo not drawn) [W-54011]
WBC (white blood cell counts) [4]: higher
inhibition of C5a-mediated responses [5]: inhibits
expression of IL10 in kidney tissue ([6]; FIG. 6): decreased
expression of IL10 in LV (left ventricle) tissue ([6]; FIG. 7): decreased
expression of IL10 in lung tissue ([6]; FIG. 8): decreased
expression of IL1b in LV (left ventricle) tissue [7]: decreased
expression of IL6 in LV (left ventricle) tissue ([8]; FIG. 9): decreased
expression of IL6 in lung tissue ([8]; FIG. 10): decreased
inhibition of C5a-mediated responses [9]: inhibits
receptor activation of hamster C5aR1 [10]: can be reduced

C-terminal peptide of human C5a (Bachem H3462) (from UniProt P01031 742-751)
Luminescence (RLU), calcium release via mitochondrial Clytin, peptide at 7 µM, measured for 60 seconds; cell line 1 of 3 [11]: 248000 RLU
Luminescence (RLU), calcium release via mitochondrial Clytin, peptide at 7 µM, measured for 60 seconds; cell line 2 of 3 [11]: 243000 RLU
Luminescence (RLU), calcium release via mitochondrial Clytin, peptide at 7 µM, measured for 60 seconds; cell line 3 of 3 [11]: 203000 RLU

CEGPFGPRHDLTFCW [2J]
IC50 [12]: 2 to 6 µM

H3462: C-terminal peptide of human C5a (Bachem H3462) (ISHKDMQLGR)
Luminescence (RLU) on stimulation [13]: 247943 RLU and 243143 RLU and 203151 RLU

sCR1: soluble version of recombinant human CR1 lacking the transmembrane and cytoplasmic domains
half-life in circulation [14]: short
complement-mediated tissue injury [15]: reduce
